Measurements as given in paper PMC12615753, “Glutathione as a taste modulator: molecular mechanisms of interaction with umami and sweet taste receptors” (Food Chemistry: Molecular Sciences, 2025).

Target: T1, hTAS1R1 D192A/rTAS1R3 (UniProt Q7RTX1+Q923K1, D192A)
T1 construct: UniProtKB number Q7RTX1–1); The cDNA coding region of rTAS1R3 was synthesized with optimized-codon usage for human expression; expressed in transfected cells; host or cells: HEK293T/17
T1 sequence (Q7RTX1 21-841 D192A): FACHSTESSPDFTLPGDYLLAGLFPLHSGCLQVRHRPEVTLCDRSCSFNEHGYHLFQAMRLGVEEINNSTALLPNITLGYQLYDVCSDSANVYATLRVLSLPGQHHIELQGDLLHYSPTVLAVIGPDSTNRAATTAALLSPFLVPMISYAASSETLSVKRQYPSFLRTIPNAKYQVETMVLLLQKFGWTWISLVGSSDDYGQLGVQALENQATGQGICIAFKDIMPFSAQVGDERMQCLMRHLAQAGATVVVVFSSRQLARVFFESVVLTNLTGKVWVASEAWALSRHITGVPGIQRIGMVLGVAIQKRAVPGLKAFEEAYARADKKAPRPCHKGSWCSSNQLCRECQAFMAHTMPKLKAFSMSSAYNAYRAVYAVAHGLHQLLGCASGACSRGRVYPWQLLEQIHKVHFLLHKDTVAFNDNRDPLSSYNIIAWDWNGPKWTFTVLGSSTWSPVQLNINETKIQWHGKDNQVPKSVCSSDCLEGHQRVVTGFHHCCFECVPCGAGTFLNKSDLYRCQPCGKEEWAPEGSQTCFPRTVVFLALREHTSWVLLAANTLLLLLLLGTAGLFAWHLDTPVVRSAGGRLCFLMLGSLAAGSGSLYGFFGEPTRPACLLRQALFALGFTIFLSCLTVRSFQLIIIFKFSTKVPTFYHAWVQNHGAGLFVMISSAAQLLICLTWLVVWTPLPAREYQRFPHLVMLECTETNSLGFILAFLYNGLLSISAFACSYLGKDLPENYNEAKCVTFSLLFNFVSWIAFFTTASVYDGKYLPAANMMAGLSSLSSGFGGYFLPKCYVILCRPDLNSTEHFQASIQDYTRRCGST
T1 sequence (Q923K1 21-858): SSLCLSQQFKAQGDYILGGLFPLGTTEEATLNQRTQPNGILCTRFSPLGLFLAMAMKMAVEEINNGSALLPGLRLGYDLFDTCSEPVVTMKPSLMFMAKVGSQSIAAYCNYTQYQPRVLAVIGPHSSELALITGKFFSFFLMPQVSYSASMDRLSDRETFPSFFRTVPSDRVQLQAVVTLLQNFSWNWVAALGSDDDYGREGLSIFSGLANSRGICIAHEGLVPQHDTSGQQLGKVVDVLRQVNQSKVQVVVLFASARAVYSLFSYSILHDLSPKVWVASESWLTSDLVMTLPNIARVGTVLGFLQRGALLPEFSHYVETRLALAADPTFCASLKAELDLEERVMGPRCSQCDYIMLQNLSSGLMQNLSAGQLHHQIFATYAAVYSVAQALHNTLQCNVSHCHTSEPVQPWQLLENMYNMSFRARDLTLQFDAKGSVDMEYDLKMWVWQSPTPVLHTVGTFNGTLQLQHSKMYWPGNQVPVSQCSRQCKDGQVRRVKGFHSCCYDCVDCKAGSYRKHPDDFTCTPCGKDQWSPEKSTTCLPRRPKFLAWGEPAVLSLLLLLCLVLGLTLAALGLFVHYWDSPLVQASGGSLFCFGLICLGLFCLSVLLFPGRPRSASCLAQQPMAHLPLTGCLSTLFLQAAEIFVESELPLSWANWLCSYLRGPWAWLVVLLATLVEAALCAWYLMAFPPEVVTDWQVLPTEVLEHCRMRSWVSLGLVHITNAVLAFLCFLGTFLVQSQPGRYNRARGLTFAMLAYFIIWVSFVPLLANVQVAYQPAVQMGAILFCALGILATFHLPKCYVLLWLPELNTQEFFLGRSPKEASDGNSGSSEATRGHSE
Experiment: cell-based
Assay type: cell-based, human, rat
From the text: Chimeric Gα proteins, such as Gα16Gust44, Gα16Gi3 or Gα15i2, are widely used in the functional expression of TAS1R receptors ([Backes et al., 2015]; [Suess et al., 2015]; [Toda et al., 2021], [Toda et al., 2013], [Toda et al., 2018]; [Zhang et al., 2008]). Chimeric Gα15i2 (([Toda et al., 2013]), Supplementary data) was generated by replacing the last five residues of the C-terminal tail of rat Gα15i2 (EINLL) (UniProt number G3V6N8; https://www.uniprot.org/uniprot/) with the counterpart sequence from human GNAI2 (DCGLF) (UniProt number P04899-1) and cloning into the pcDNA3.1/Hygro vector (Invitrogen, Thermo Fisher Scientific, Illkirch, France) between the HindIII and NotI restriction sites, resulting in the plasmid pcDNA3.1-Gα15i2. Chimeric Gα16Gust44 construct have already been reported ([Raliou et al., 2011]). Briefly, Gα16Gust44 was generated by replacing the C-terminal of Gα16 with the C-terminal 44 residues of gustducin. As previously described, hTAS1R1 was amplified from human fungiform papillae cDNA and cloned and inserted into pcDNA3 (Invitrogen), generating pcDNA3-TAS1R1-WT (wild-type) ([Raliou et al., 2011]). […] The cDNA coding region of rTAS1R3 was synthesized with optimized-codon usage for human expression (Genewiz) and was cloned and inserted into the mammalian pcDNA4/myc-HisA (Invitrogen) expression vector between the EcoRI and NotI restriction sites, resulting in the plasmid pcDNA4-rTAS1R3. […] The sequence integrity of all the plasmid constructs was verified via automated DNA sequencing (Genewiz).
The hTAS1R1 mutants were co-expressed with the rTAS1R3 subunit in HEK293 cells. […] As a control, the functionality of the mutated receptors was checked after stimulation with S807 (Fig. S8), which interacts with TAS1R1-TMD ([Zhang et al., 2008]).

N[C@@H](CCC(=O)N[C@@H](CS)C(=O)NCC(=O)O)C(=O)O [GSH, γ-L-glutamyl-L-cysteinyl-glycine]
EC50: 3.25 ± 0.061 mM | effect of the added compound (1 mM) on the response to L-Glu (D192A): synergy was observed | response to the agonist alone, vs WT (D192A): significantly increased the initial amplitude | Max ∆F/F0 (D192A, GSH): 0.65 ± 0.01 | R1 = mutant EC50/WT EC50 (D192A, GSH): 1.3
